Earlier results as cited in US20080242648A1, “COMBINATION OF ERa+ LIGANDS AND HISTONE D[…] THE TREATMENT OF CANCER” (Syndax Pharmaceuticals, Inc., a California Corporation, priority 2006, published 2008).

System: breast cancer
Conditions: second line setting, post-menopausal women

For “7-alpha-[9-(4,4,5,5,5-penta fluoropentylsulphinyl)nonyl]estra-1,3,5-(10)-triene-3,17-beta-diol [Faslodex]”, the response rate is given as 17-20% and the time to progression is given as 5.4-5.5 month.
